The first test concerns the target T1, HCV NS5B (Hepatitis C virus genotype 1b, UniProt P26663).
T1 construct: The NS5B protein (591 amino acids, 65 kDa) of HCV
The experiment in a line: biochemical.
Details: not given
How it is done:
The activity of the inventive compounds as inhibitors of HCV activity may be measured by any of the suitable methods known to those skilled in the art, including in vivo and in vitro assays. For example, the HCV NS5B inhibitory activity of the compounds of Formulas I, II and III was determined using standard assay procedures described in Behrens et al., EMBO J. 15:12-22 (1996), Lohmann et al., Virology 249:108-118 (1998) and Ranjith-Kumar et al., J. Virology 75:8615-8623 (2001).
The HCV NS5B inhibitory activity of the compounds of Formulas I, II m and IV was determined using standard procedures well known to those skilled in the art and described in, for example Behrens et al., EMBO J. 15:12-22 (1996), Lohmann et al., Virology 249:108-118 (1998) and Ranjith-Kumar et al., J. Virology 75:8615-8623 (2001).
T1 sequence (P26663 2420-3010): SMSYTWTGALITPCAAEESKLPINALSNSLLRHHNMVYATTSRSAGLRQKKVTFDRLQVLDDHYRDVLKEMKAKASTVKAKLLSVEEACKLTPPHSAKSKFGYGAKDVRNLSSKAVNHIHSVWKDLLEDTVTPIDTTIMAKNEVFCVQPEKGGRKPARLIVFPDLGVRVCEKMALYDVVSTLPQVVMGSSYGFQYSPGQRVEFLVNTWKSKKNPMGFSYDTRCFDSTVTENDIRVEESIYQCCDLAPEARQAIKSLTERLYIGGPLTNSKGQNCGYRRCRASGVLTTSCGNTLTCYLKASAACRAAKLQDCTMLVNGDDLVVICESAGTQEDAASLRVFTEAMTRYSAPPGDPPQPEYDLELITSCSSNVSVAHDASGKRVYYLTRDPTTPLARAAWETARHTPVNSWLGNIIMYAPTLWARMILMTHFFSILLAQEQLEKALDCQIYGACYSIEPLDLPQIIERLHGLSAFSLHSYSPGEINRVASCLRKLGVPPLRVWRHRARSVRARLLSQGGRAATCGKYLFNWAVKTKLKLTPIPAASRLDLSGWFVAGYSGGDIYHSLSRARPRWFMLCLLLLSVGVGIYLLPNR
As a reminder, the IC50 is the concentration that gives 50% inhibition. In turn, `O=c1c(C2=NS(=O)(=O)c3ccccc3N2)c(O)c2ccccc2n1CCc1ccccc1` [Example 1] yielded an IC50 of over 10 µM.

Molecule `N#Cc1ccccc1Cn1c(=O)c(C2=Nc3ccccc3S(=O)(=O)N2)c(O)c2ccccc21` [Example 2, 3-(1,1-Dioxo-1,2-dihydrobenzo[1,2,4]thiadiazin-3-yl)-4-hydroxy-1-(2-cyanobenzyl)-1H-quinolin-2-one] gave an IC50 of over 10 µM.

Regarding `O=c1c(C2=NS(=O)(=O)c3ccccc3N2)c(O)c2ccccc2n1CCCc1ccccc1` [Example 3], the IC50 is over 10 µM.

`COc1ccc(C(=O)Nc2ccc3c(c2)c(O)c(C2=NS(=O)(=O)c4ccccc4N2)c(=O)n3CCC(C)C)cc1` [Example 37, N-[3-(1,1-Dioxo-1,4-dihydrobenzo[1,2,4]thiadiazin-3-yl)-4-hydroxy-1-(3-methylbutyl)-2-oxo-1,2dihydroquinolin-6-yl]4-methoxybenzamide] yielded an IC50 of over 10 µM.

In the case of `CCOC(=O)c1ccc2c(c1)c(O)c(C1=NS(=O)(=O)c3ccccc3N1)c(=O)n2CCC(C)C` [Example 95, 3-(1, i-Dioxo-1,4-dihydrobenzo[1,2,4]thiadiazin-3-yl)-4-hydroxy-1-(3-methylbutyl)-2-oxo-1,2-dihydroquinoline-6-carboxylic acid ethyl ester], the half-inhibitory concentration (IC50) was over 10 µM.

The molecule `COc1ccc(CCNC(=O)c2ccc3c(c2)S(=O)(=O)N=C(c2c(O)c4ccccc4n(CCC4CC4)c2=O)N3)cc1` [Example 102, 3-[1-(2-Cyclopropylethyl)-4-hydroxy-2-oxo-1,2-dihydroquinolin-3-yl]-1,1-dioxo-1,4 dihydroenzo[1,2,4]thiadiazine-7-carboxylic acid [2-(4-methoxyphenyl)ethyl]amide] showed an IC50 of over 10 µM.

The molecule `NC(=O)CCCn1c(=O)c(C2=Nc3ccccc3S(=O)(=O)N2)c(O)c2ccccc21` [Example 170, 4-[3-(1,1-Dioxo-1,2-dihydrobenzo[1,2,4]thiadiazin-3-yl)-4-hydroxy-2-oxoquinolin-1-yl]butyramide] displayed a half-inhibitory concentration (IC50) of over 10 µM.

For `CC(C)CCn1c(=O)c(C2=Nc3ccccc3S(=O)(=O)N2)c(O)c2ccc(C(=O)O)cc21` [Example 171, 3-(1,1-Dioxo-1,2-dihydrobenzo[1,2,4]thiadiazin-3-yl)-4-hydroxy-1-(3-methylbutyl)-2-oxo-1,2-dihydro-quinoline-7-carboxylic acid], the IC50 was over 10 µM.

In turn, `CC(C)CCn1c(=O)c(C2=Nc3ccccc3S(=O)(=O)N2)c(O)c2ccc(Br)cc21` [Example 173, 7-bromo-3-(1,1-dioxo-1,2-dihydrobenzo[1,2,4]thiadiazin-3-yl)-4-hydroxy-1-(3-methylbutyl)-1H-quinolin-2-one] showed an IC50 of over 10 µM.

`CC(C)CCn1c(=O)c(C2=NS(=O)(=O)c3cc(I)ccc3N2)c(O)c2ccccc21` [Example 181, 4-Hydroxy-3-(7-iodo-1,1-dioxo-1,4-dihydro-1-benzo[1,2,4]thiadiazin-3-yl)-1-(3-methylbutyl)-1H-quinolin-2-one] displayed an IC50 of over 10 µM.

In turn, `CCOC(=O)CCCn1c(=O)c(C2=NS(=O)(=O)c3ccccc3N2)c(O)c2ccccc21` [Example 182, 4-[3-(1,1-Dioxo-1,4-dihydro-1-benzo[1,2,4]thiadiazin-3-yl)-4-hydroxy-2-oxo-2H-quinolin-1-yl]-butyric acid ethyl ester] returned an IC50 of over 10 µM.

Regarding `O=C(O)CCCn1c(=O)c(C2=Nc3ccccc3S(=O)(=O)N2)c(O)c2ccccc21` [Example 183, 4-[3-(1,1-Dioxo-1,4-dihydro-1-benzo[1,2,4]thiadiazin-3-yl)-4-hydroxy-2-oxo-2H-quinolin-1-yl]-butyric acid], the half-inhibitory concentration (IC50) was over 10 µM.

Consider `CC(C)CCn1c(=O)c(C2=NS(=O)(=O)c3ccccc3N2)c(O)c2cc(I)ccc21` [Example 185, 3-(1,1-Dioxo-1,4-dihydro-1-benzo[1,2,4]thiadiazin-3-yl)-4-hydroxy-6-iodo-1-(3-methylbutyl)-1H-quinolin-2-one], for which the IC50 is over 10 µM.

In turn, `CC(C)CCc1cccc2c(O)c(C3=NS(=O)(=O)c4ccccc4N3)c(=O)[nH]c12` [Example 186, 3-(1,1-Dioxo-1,4-dihydro-1-benzo[1,2,4]thiadiazin-3-yl)-4-hydroxy-8-(3-methylbutyl)-1H-quinolin-2-one] yielded a half-maximal inhibitory concentration (IC50) of over 10 µM.

Regarding `CC(C)CCn1c(=O)c(C2=NS(=O)(=O)c3ccccc3N2)c(O)c2c(C(=O)O)cccc21` [Example 188, 3-(1,1-Dioxo-1,4-dihydro-1-benzo[1,2,4]thiadiazin-3-yl)-4-hydroxy-1-(3-methylbutyl)-2-oxo-1,2-dihydro-quinoline-5-carboxylic acid], the IC50 is over 10 µM.

Molecule `CN(C)CCn1c(=O)c(C2=Nc3ccccc3S(=O)(=O)N2)c(O)c2ccccc21` [Example 190, 1-(2-Dimethylamino-ethyl)-3-(1,1-dioxo-1,4-dihydro-1-benzo[1,2,4]thiadiazin-3-yl)-4-hydroxy-1H-quinolin-2-one] had an IC50 of over 10 µM.

`O=c1c(C2=NS(=O)(=O)c3ccccc3N2)c(O)c2ccccc2n1CCO` [Example 193, 3-(1,1-Dioxo-1,4-dihydro-1-benzo[1,2,4]thiadiazin-3-yl)-4-hydroxy-1-(2-hydroxyethyl)-1H-quinolin-2-one] had a half-maximal inhibitory concentration (IC50) of over 10 µM.

The molecule `Cc1ccc(F)cc1Cn1c(=O)c(C2=NS(=O)(=O)c3ccccc3N2)c(O)c2ccccc21` [Example 195, 3-(1,1-Dioxo-1,4-dihydro-1-benzo[1,2,4]thiadiazin-3-yl)-1-(5-fluoro-2-methyl-benzyl)4-hydroxy-1H-quinolin-2-one] returned a half-maximal inhibitory concentration (IC50) of over 10 µM.

`O=c1c(C2=Nc3ccccc3S(=O)(=O)N2)c(O)c2ccccc2n1Cc1ccccc1[N+](=O)[O-]` [Example 196, 3-(1,1-Dioxo-1,4-dihydro-1-benzo[1,2,4]thiadiazin-3-yl)-4-hydroxy-1-(2-nitro-benzyl)-1H-quinolin-2-one] yielded a half-inhibitory concentration (IC50) of over 10 µM.

Still in this test, the particulars now being: screening rate of 10 uM.
With `CC(C)CCn1c(=O)c(C2=Nc3ccccc3S(=O)(=O)N2)c(O)c2ccc([N+](=O)[O-])cc21` [Example 198, 3-(1,1-Dioxo-1,2-dihydrobenzo[1,2,4]thiadiazin-3-yl)-4-hydroxy-1-(3-methylbutyl)-7-nitro-1H-quinolin-2-one], the “biological activity at the screening rate of 10 uM” value (“biological activity” below) is on record as “did not demonstrate biological activity”.

For `CC(C)CCn1c(=O)c(C2=Nc3ccccc3S(=O)(=O)N2)c(O)c2ccc(Cl)cc21` [Example 199, 7-Chloro-3-(1,1-dioxo-1,2-dihydrobenzo[1,2,4]thiadiazin-3-yl)-4-hydroxy-1-(3-methylbutyl)-H-quinolin-2-one], the “biological activity” value is recorded as “did not demonstrate biological activity”.

With `NCCCCn1c(=O)c(C2=Nc3ccccc3S(=O)(=O)N2)c(O)c2ccccc21` [Example 200, 1-(4-Aminobutyl)-3-(1,1-dioxo-1,2-dihydrobenzo[1,2,4]thiadiazin-3-yl)-4-hydroxy-1-1H-quinolin-2-one], the “biological activity” value is “did not demonstrate biological activity”.

Turning to `O=c1c(C2=Nc3ccccc3S(=O)(=O)N2)c(O)c2ccccc2n1-c1ccccc1` [Example 201, 3-(1,1-Dioxo-1,2-dihydrobenzo[1,2,4]thiadiazin-3-yl)-4-hydroxy-1-phenyl-1H-quinolin-2-one], the “biological activity” value is “did not demonstrate biological activity”.

For the molecule `CC(C)CCn1c(=O)c(C2=NS(=O)(=O)c3c(Br)cccc3N2)c(O)c2ccccc21` [Example 203, 3-(8-Bromo-1,1-dioxo-1,4-dihydro-1-benzo[1,2,4]thiadiazin-3-yl)-4-hydroxy-1-(3-methylbutyl)-1H-quinolin-2-one], the “biological activity” value is recorded as “did not demonstrate biological activity”.

`CC(C)CCn1c(=O)c(C2=NS(=O)(=O)c3ccccc3N2)c(O)c2ccc(/C=C/C(N)=O)cc21` [Example 204, (E)-3-[3-(1,1-Dioxo-1,4-dihydro-1-benzo[1,2,4]thiadiazin-3-yl)-4-hydroxy-1-(3-methylbutyl)-2-oxo-1,2-dihydro-quinolin-7-yl]acrylamide]: the “biological activity” value was “did not demonstrate biological activity”.

For the molecule `CC(C)CCOc1ccc2c(c1)c(O)c(C1=NS(=O)(=O)c3ccccc3N1)c(=O)n2CC(=O)OC(C)(C)C` [Example 205, [3-(1,1-Dioxo-1,4-dihydro-1-benzo[1,2,4]thiadiazin-3-yl)-4-hydroxy-6-(3-methyl-butoxy)-2-oxo-2H-quinolin-1-yl]acetic acid tert-butyl ester], the “biological activity” value is on record as “did not demonstrate biological activity”.

In the case of `CC(C)CCn1c(=O)c(C2=NS(=O)(=O)c3ccccc3N2)c(O)c2cc(C(=O)N(C)C)ccc21` [Example 206, 3-(1,1-Dioxo-1,4-dihydro-1-benzo[1,2,4]thiadiazin-3-yl)-4-hydroxy-1-(3-methylbutyl)-2-oxo-1,2-dihydro-quinoline-6-carboxylic acid dimethylamide], the “biological activity” value is given as “did not demonstrate biological activity”.

As to `O=c1c(C2=NS(=O)(=O)c3ccccc3N2)c(O)c2ccccc2n1CCN1CCCC1` [Example 207, 3-(1,1-Dioxo-1,4-dihydro-1-benzo[1,2,4]thiadiazin-3-yl)-4-hydroxy-1-(2-pyrrolidin-1-yl-ethyl)-1H-quinolin-2-one], the “biological activity” value is given as “did not demonstrate biological activity”.

With `CC(C)(C)c1ccc(Cn2c(=O)c(C3=NS(=O)(=O)c4ccccc4N3)c(O)c3ccccc32)cc1` [Example 208, 1-(4-tert-Butylbenzyl)-3-(1,1-dioxo-1,4-dihydro-1-benzo[1,2,4]thiadiazin-3-yl)-4-hydroxy-1H-quinolin-2-one], the “biological activity” value is “did not demonstrate biological activity”.

Source of the values: US20040147739A1, “Novel anti-infectives” (priority 2003, published 2004).
